# Assay results from patent US20260098863A1, “Tension-Activated Cell Tagging (TaCT)” (Emory University, priority 2022, published 2026).
# Assays:
# [1] = test system: mouse embryonic fibroblasts; experiment: fluorescence microscopy of force-induced DNA duplex peeling under mouse embryonic fibroblasts; assay type: cell-based
# Protocol: FIG. 4A illustrates Lat B inhibition of cells. […] RICM and Cy3B microscopy images were obtained from MEF cells incubated on peeling probe substrate after early Lat B treatment. Cells were treated with 20 μM Lat B after 15 min of plating on the substrate and imaged after 45 min of incubation.
# FIG. 4B illustrates that when integrin force signals are already generated on peeling probe substrate, if the force transmission is terminated by late Lat B treatment, with additional BHQ2 peeling strand, the peeling probe can rehybridize to the duplex form. RICM and raw Cy3B microscopy images were obtained of MEF cells treated with 20 μM Lat B 50 min after seeding. The tension signal remained after 10 min of Lat B treatment and diminished after the addition of excess BHQ2 peeling strand.
# The Cy3B signal was primarily localized to the cell edge, consistent with the distribution of focal adhesions (FAs) and accumulated as a function of time. The growth of Cy3B signal corresponded to the loss of Atto647N signal and confirmed the force-induced peeling mechanism. This mechanism can generate high quality maps of integrins forces independent of cholesterol conjugation to the probe. […] The observed tension signal colocalized with markers of FAs such as vinculin and phosphorylated focal adhesion kinase (FAK pY397), as well as actin stress fibers, confirming that forces were primarily transmitted by integrins within FAs. The peeling signal mirrors that of the turn-on tension gauge tether (TGT) probes but avoids termination of mechanotransduction which represents an advantage as a molecular force sensor. […] Maps accumulated mechanical events over time.
# NIH3T3 cells [2] = experiment: TaCT signal by flow cytometry, NIH3T3 cells on TaCT substrates; assay type: cell-based
# Protocol: FIG. 1 provides a scheme of tension-activated cell tagging (TaCT). TaCT is based on 3′ and 5′ end mechanical pulling of a DNA duplex that leads to dehybridization. The stability of a dsDNA 24 mer was evaluated as a function of applied force generated using oxDNA simulation with a loading rate of 2.81×10^3 nm/s. The exponential moving average (EMA) indicates a 41 pN dehybridization transition. Flow cytometry histograms of NIH3T3 cells cultured on TaCT substrates as well as control surfaces with (−)cholesterol, (−)RGD, and (+)LatB were obtained.
# NIH3T3 cells were seeded onto the TaCT substrates, allowed to spread, and collected by gentle scraping. The TaCT signal was then measured by flow cytometry. Probes lacking RGD, probes lacking cholesterol, as well as full TaCT probes cells treated with Lat B were used as negative controls. […] Background tagging of cells due to cell spreading and proximity to the surface leads to negligible TaCT signal.
# [3] = target: Rho-associated protein kinase (ROCK); settings: cited from earlier work
# MEF cells [4] = experiment: Y27632 dose-dependent response of TaCT / tension signal in MEF cells; assay type: cell-based, mouse; settings: Y27632 pre-treatment
# Text: To showcase that TaCT is an effective method to report cell receptor forces, a Rho-associated protein kinase (ROCK) inhibitor, Y27632, was used to disrupt the force transmission through cytoskeleton and measure the dose-dependent response in MEF cells. Y27632 inhibits ROCK kinases by competing with ATP binding, and further result in decreased myosin activity, destabilization of actin filament and abolished stress formation.
# NIH3T3 cells [5] = experiment: cholesterol peeling strand dissociation from the cell; assay type: cell-based; settings: at 90 min after washing
# Protocol: FIG. 5E provides a scheme showing the measurement of cholesterol peeling strand dissociation from the cell. NIH3T3 cells were incubated with 100 nM cholesterol peeling strand for 30 min and rinsed with PBS 3 times. Cells were divided into 6 aliquots and the remaining cholesterol strand in cells was measured every 30 min for 150 min by flow cytometry.
# The normalized MFI from 2 replicates was plotted to show the dissociation of cholesterol strand over time in NIH3T3 cells.
# (§1) After confirming that DNA peeling consistently maps molecular traction forces, cholesterol-DNA cell tagging for TaCT was investigated. Cholesterol-DNA is contemplated to partition into the plasma membrane of cells. […] The stability of TaCT tags was examined by incubating cholesterol-single stranded DNA with cells, washing, and measuring the loss of DNA as a function of time. Approximately 20-30% of the cholesterol-tethered DNA dissociated at 90 min. Accordingly, the cells were incubated on the surface for 1 h, which allowed for focal adhesion formation and TaCT method to proceed while limiting cholesterol dissociation.
# MEF cells [6] = experiment: concentration dependent incorporation of cholesterol peeling strand; assay type: cell-based, mouse; settings: 0, 1, 10, 100 nM, 1 h
# Protocol: FIG. 5C provides a scheme showing flow cytometry measurements of the concentration dependent incorporation of cholesterol peeling strand. MEF cells were incubated with 0, 1, 10, and 100 nM of cholesterol peeling strand for 1 h. The excess cholesterol peeling strand was washed away by spinning down in PBS three times, and the fluorescence intensity of cells was measured by a flow cytometer.
# Linear relationship between cholesterol strand concentration and cell association was found, R2=0.977.
# as §1
# mouse platelets [7] = experiment: flow cytometry of DNA strand uptake in solution (cholesterol-DNA cell tagging); assay type: cell-based; settings: 50 nM, 30 min
# Protocol: FIG. 5A illustrates a scheme for making flow cytometry measurements of the DNA strands uptake in solution. Mouse platelets were incubated with 50 nM of cholesterol peeling strand, TaCT duplex, load-bearing strand, TaCT duplex lacking RGD, and load-bearing strand lacking RGD in Tyrode's buffer for 30 min and spun down three times to wash away the excess oligos. The association was measured in both Atto647N and Cy3B channels by a flow cytometer.
# as §1
# mouse platelets [8] = experiment: TaCT signal by flow cytometry, mouse platelets on TaCT surface; assay type: cell-based; settings: mouse platelets seeded 30 min
# Protocol: Experiments were performed to determine whether this strategy works in primary cells. […] When mouse platelets were seeded onto the TaCT surface for 30 min, a loss of Atto647N signal was noted that was coupled with an increase in Cy3B. This confirmed that platelet integrin force transmission was sufficient to mediate DNA peeling with F greater than 41 pN.
# [9] = FRET efficiency of surface-immobilized TaCT probes; assay type: physicochemical
# Text: In one example, TaCT probe is comprised of a load-bearing strand and a 24mer peeling strand. […] The loading-bearing strand also incorporated an internal Cy3B dye. The complementary peeling strand was designed to release once force (F) is greater than F peel. The peeling strand termini were labeled with Atto647N and cholesterol. The TaCT probes were annealed and immobilized on streptavidin-coated glass slides. At rest, the probe is in the dsDNA form where Cy3B and Atto647N form a FRET pair. When F is greater than F peel, the Atto647N strand peels and dissociates, while the Cy3B dye on the load bearing strand is de-quenched. […] The probe density was measured at 5200 molecules/μm^2 using a quantitative fluorescence calibration, which allows one to convert the Cy3B fluorescence signal to a % peel.
# MEF cells (WT and vin−) = experiment: TaCT on co-cultured WT and vinculin null MEF cells, flow cytometry; assay type: cell-based, mouse
# Protocol: Vinculin is an adaptor protein that localizes to FAs linking the cytoskeleton to adhesion receptors and aids in FA maturation. TaCT was performed on these two cell types separately. The vin− cells were stained with cell tracker dye, CMFDA, before plating onto TaCT substrates. To ensure that the TaCT signal is not due to differential uptake, cholesterol uptake of WT and vin− cells was measured by flow cytometry in parallel with each TaCT assay. WT cells had larger spreading area and produced more tension signal compared to vin− cells in the Cy3B channel. […] Experiments were performed to determine whether this differential tension signal could be detected when the WT and vin− were co-cultured.
compound,measurement,setting,value
"C/C1=C/C(=O)O[C@@H]2C[C@@H](CC[C@H](C)/C=C\CC1)O[C@@](O)([C@@H]1CSC(=O)N1)C2 [Lat B, Latrunculin B, reference compound]",tension signal changes,[1]; Lat B 50 min after seeding (20 μM),did not show tension signal changes
same,peeling signal,"[1]; cells treated with Lat B (early, 20 μM)",significantly reduced peeling signal
same,force positive population,"NIH3T3 cells [2]; NIH3T3 cells on full TaCT probes, cells treated with Lat B",3.5%
C[C@@H](N)[C@H]1CC[C@H](C(=O)Nc2ccncc2)CC1 [Y27632],literature reported IC50 values,[3],hundreds of nM to low μM
same,IC50,"MEF cells [4]; Mus musculus, flow cytometry, ROCK inhibitor",773 nM
same,Cy3B tension signal,MEF cells [4]; microscopy,decreased Cy3B tension signal
"Cholesterol-single stranded DNA conjugates: 24 mer peeling strand (SEQ ID NO: 2) labeled with Atto647N and cholesterol (DNA AGTTCTAAGACTTCAGAGCTCACT; DNA, backbone and methylation of C not given here; Atto647N and cholesterol on the termini)",cholesterol-tethered DNA dissociated,NIH3T3 cells [5],20-30%
same,membrane-association versus soluble conjugate concentration,MEF cells [6],linearly proportional
same,effectiveness at tagging cells compared to cholesterol-double stranded DNA conjugates,mouse platelets [7],approximately 50 fold
"TaCT probe: DNA duplex: RGD/Cy3B/biotin load-bearing strand (SEQ ID NO: 1) and 24mer Atto647N, cholesterol peeling strand (SEQ ID NO: 2) (DNA 1 TTTTTTTTTTAGTGAGCTCTGAAGTCTTAGAACT; DNA 2 AGTTCTAAGACTTCAGAGCTCACT; DNA, backbone and methylation of C not given here; RGD and biotin at the two termini, internal Cy3B, peeling strand Atto647N and cholesterol)",mechanical events with F greater than 41 pN,[1]; equivalent of % peel and probe density,approximately 47 mechanical events/μm^2
same,probes peeled under each cell,[1]; quantitative microscopy analysis,0.9%
same,force positive population,mouse platelets [8],13.3%
same,Cy3B signal enhancement upon peeling,[9],greater than 10 fold
same,FRET efficiency,[9]; Cy3B / Atto647N pair in dsDNA form,93.8%
same,Atto647N geometric mean fluorescence intensity (gMFI) increase compared to controls,NIH3T3 cells [2]; NIH3T3 cells incubated on TaCT,greater than 2 fold
same,Cy3B gMFI,NIH3T3 cells [2]; NIH3T3 cells incubated on TaCT compared to controls,did not change
same,force positive population,"NIH3T3 cells [2]; NIH3T3 cells on substrate, 1 h, flow cytometry",27.6%
same,force positive population,MEF cells (WT and vin−); WT MEF cells in mixed population (co-culture),24.4%
same,force positive population,MEF cells (WT and vin−); vin− MEF cells in mixed population (co-culture),5.2%
